From US20160130630A1, “METHOD FOR DETECTING CAMPYLOBACTER” (JNC CORPORATION, priority 2014, published 2016)

Tests used:
ESBL-producing bacteria = experiment: growth inhibition of ESBL-producing bacteria; format: cell-based
Campylobacter bacteria = experiment: growth inhibition of Campylobacter bacteria by cephamycin antibiotics; format: cell-based

SMILES: CO[C@@]1(NC(=O)Cc2cccs2)C(=O)N2C(C(=O)O)=C(COC(N)=O)CS[C@@H]21 [Cefoxitin]
- inhibition of growth of ESBL-producing bacteria (ESBL-producing bacteria): inhibits the growth
- inhibition of growth of Campylobacter bacteria (Campylobacter bacteria): does not inhibit growth
